In patent US9067922B2, “Chemical compounds” (Pfizer Limited, priority 2013, dated 2015):

Biological target: URAT-1 transporter (Homo sapiens (Human), UniProt Q96S37)
Assay: URAT-1 inhibitor activity: [14C]-uric acid uptake in CHO-URAT1(L)GFP#8 (CHO#8) cells, scintillation proximity
Assay type: cell-based
Settings: inhibition of [14C]-uric acid (30 nM) uptake into CHO#8 cells; compound 0 to 10 μM; 4 parameter logistic fit
Description: The nucleotide sequence for the long isoform of URAT1 (NM_144585) was C-terminally fused to that of enhanced green fluorescent protein (eGFP) (hereinafter referred to as URAT1(L)GFP). The combined sequence was codon-optimised and custom synthesized. The synthesized sequence was generated in pDONR221 Gateway entry vector (Invitrogen Life Technologies) prior to cloning in pLenti6.3/V5 Gateway destination vector (Invitrogen Life Technologies).
Lentiviral particles were generated according to ViraPower HiPerform expression system procedure (Invitrogen Life Technologies) and used to transduce CHO cells. […] The clonal pools were sorted using fluorescence-activated cell sorting (FACS) on the basis of GFP expression with the gating set at the top 50% of expression into single cells which were subsequently expanded to generate clonal lines. […] This cell line was used for all screening activities and is referred to as CHO-URAT1(L)GFP#8 or CHO#8.
The potency of the compounds of formula (I) as inhibitors of the URAT-1 transporter was determined as follows.
CHO#8 cells were cultured in cell line maintenance flasks in medium consisting of Dulbecco's modified Eagle medium (DMEM) with high glucose and sodium pyruvate (4.5 g of glucose per liter, Invitrogen Life Technologies), supplemented with heat-inactivated foetal bovine serum (FBC, 10% v/v), 1×NEAA (non-essential amino acids) and blasticidin (10 μg/ml). Cultures were grown in 175 cm^2 tissue culture flasks in a humidified incubator at approximately 37° C. in approximately 95% air/5% CO2. Near confluent CHO#8 cell cultures were harvested by trypsinisation, re-suspended in culture medium and the process was repeated once or twice weekly to provide sufficient cells for use.
Assay ready flasks were generated by the same method, except the cells were not cultured in blasticidin.
Assay ready frozen cells were generated by freezing 40,000,000 cells in 1 ml of FBS (without blasticidin) containing 10% DMSO per vial. One vial was sufficient for 5 assay plates. Each vial was thawed rapidly to 37° C., washed and re-suspended in pre-warmed culture medium for seeding onto assay plates.
CHO#8 cells were seeded onto Cytostar™ 96-well plates at a density of […]. The cells were cultured for 1 day at approximately 37° C. in a humidified incubator containing approximately 5% CO2 in air. After approximately 24 hours culture, cells were used for uptake experiments.
On the day of assay, culture medium was removed from the wells and the cells were washed once with 50 μL of chloride-containing buffer (136.7 mM NaCl, 5.36 mM KCl, 0.952 mM CaCl2, 0.441 mM KH2PO4, 0.812 mM MgSO4, 5.6 mM D-glucose, 0.383 mM Na2HPO4.2H2O, 10 mM HEPES, pH 7.4 with NaOH). The cells were pre-incubated with another 50 μL of chloride-containing buffer for one hour at approximately 37° C. in a humidified incubator containing approximately 5% CO2 in air.
Assay compound plates were prepared by diluting the compounds of formula (I) with chloride-free buffer (125 mM Na-gluconate, 4.8 mM K-gluconate, 1.3 mM Ca-gluconate, 1.2 mM KH2PO4, 1.2 mM MgSO4, 5.6 mM D-glucose, 25 mM HEPES, pH 7.4 with NaOH) in 100% DMSO to a final concentration of 1% DMSO. [^14C]-Uric Uric acid working stock was made by addition of radiolabeled compound to a final concentration of 120 nM in chloride-free buffer. In all wells, the final assay concentration of solvent (DMSO) was 0.25%; the final assay concentration of [^14C]-uric acid was 30 nM in chloride-free buffer and the final compound of formula (I) concentrations ranged from 0 to 10 μM.
After pre-incubation, cells were washed with 50 μL of chloride-free buffer and another 50 μL of chloride-free buffer was added.

Sequence of URAT-1 transporter (Q96S37 other isoform, or with tags, fused parts or gaps): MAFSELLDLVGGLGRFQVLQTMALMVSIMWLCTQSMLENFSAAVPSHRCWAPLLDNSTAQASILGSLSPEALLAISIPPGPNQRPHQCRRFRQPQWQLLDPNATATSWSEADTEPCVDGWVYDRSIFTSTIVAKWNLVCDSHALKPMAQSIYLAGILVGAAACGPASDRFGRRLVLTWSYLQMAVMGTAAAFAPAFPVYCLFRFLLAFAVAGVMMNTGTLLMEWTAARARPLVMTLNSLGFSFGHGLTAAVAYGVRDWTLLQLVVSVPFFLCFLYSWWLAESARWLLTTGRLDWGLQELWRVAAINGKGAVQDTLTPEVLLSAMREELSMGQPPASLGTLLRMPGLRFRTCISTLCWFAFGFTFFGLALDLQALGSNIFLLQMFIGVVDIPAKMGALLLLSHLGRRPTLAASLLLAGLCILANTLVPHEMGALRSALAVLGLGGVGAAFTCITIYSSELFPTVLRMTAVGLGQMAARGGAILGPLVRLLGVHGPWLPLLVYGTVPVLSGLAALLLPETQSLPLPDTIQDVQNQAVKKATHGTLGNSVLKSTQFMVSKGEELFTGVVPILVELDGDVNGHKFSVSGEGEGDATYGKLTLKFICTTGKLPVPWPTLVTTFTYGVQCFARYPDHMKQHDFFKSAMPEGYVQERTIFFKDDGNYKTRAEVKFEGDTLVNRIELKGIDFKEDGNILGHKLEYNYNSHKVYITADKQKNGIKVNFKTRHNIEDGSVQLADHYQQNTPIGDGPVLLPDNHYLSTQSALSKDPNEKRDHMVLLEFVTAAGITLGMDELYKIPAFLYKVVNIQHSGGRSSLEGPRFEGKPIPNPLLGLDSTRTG

| Structure (SMILES) | IC50 [nM] |
| --- | --- |
| N#Cc1cc(S(=O)(=O)Nc2ccc(F)cn2)ccc1Oc1ccccc1F [Example 41, 3-cyano-4-(2-fluorophenoxy)-N-(5-fluoropyridin-2-yl)benzenesulfonamide] | 162 |
| N#Cc1ccnc(NS(=O)(=O)c2ccc(Oc3ccc(F)c(Cl)c3)c(C#N)c2)c1 [compound 229] | 126 |
| N#Cc1cc(S(=O)(=O)Nc2ccc(F)cn2)ccc1Oc1cnc(C2CC2)c(Cl)c1 [Example 180, 4-[(5-chloro-6-cyclopropylpyridin-3-yl)oxy]-3-cyano-N-(5-fluoropyridin-2-yl)benzenesulfonamide] | 877 |
| COc1cccc(Cl)c1Oc1ccc(S(=O)(=O)Nc2ccc(F)cn2)cc1C#N [Example 114, 4-(2-chloro-6-methoxyphenoxy)-3-cyano-N-(5-fluoropyridin-2-yl)benzenesulfonamide] | 69 |
| N#Cc1ccc(Oc2ccc(S(=O)(=O)Nc3ccc(F)cn3)c(F)c2)cc1F [Example 99, 4-(4-cyano-3-fluorophenoxy)-2-fluoro-N-(5-fluoropyridin-2-yl)benzenesulfonamide] | 29 |
| N#Cc1cc(F)c(Oc2ccc(S(=O)(=O)Nc3ccc(F)cn3)cc2C#N)cc1F [Example 72, 3-cyano-4-(4-cyano-2,5-difluorophenoxy)-N-(5-fluoropyridin-2-yl)benzenesulfonamide] | 77 |
| COc1ccc(Oc2ccc(S(=O)(=O)Nc3ccc(F)cn3)cc2C#N)cc1 [Example 188, 3-cyano-N-(5-fluoropyridin-2-yl)-4-(4-methoxyphenoxy)benzenesulfonamide] | 3740 |
| COc1c(F)ccc(Oc2ccc(S(=O)(=O)Nc3ccc(F)cn3)cc2C#N)c1C [Example 165, 3-cyano-4-(4-fluoro-3-methoxy-2-methylphenoxy)-N-(5-fluoropyridin-2-yl)benzenesulfonamide] | 139 |
| Cc1cc(Oc2ccc(S(=O)(=O)Nc3ccc(F)cn3)cc2C#N)ccc1F [Example 141, 3-cyano-4-(4-fluoro-3-methylphenoxy)-N-(5-fluoropyridin-2-yl)benzenesulfonamide] | 43 |
| N#Cc1cc(S(=O)(=O)Nc2ccc(F)cn2)ccc1Oc1cccc(C2CC2)c1 [Example 118, 3-cyano-4-(3-cyclopropylphenoxy)-N-(5-fluoropyridin-2-yl)benzenesulfonamide] | > 10000 |
| Cc1cc(Oc2ccc(S(=O)(=O)Nc3ccc(F)cn3)cc2C#N)c(Cl)cc1Cl [Example 109, 3-cyano-4-(2,4-dichloro-5-methylphenoxy)-N-(5-fluoropyridin-2-yl)benzenesulfonamide] | 892 |
| CC(C)(C)c1ccc(Oc2ccc(S(=O)(=O)Nc3ccc(F)cn3)cc2C#N)cc1 [Example 137, 4-(4-tert-butylphenoxy)-3-cyano-N-(5-fluoropyridin-2-yl)benzenesulfonamide] | > 10000 |
| N#Cc1ccc(Oc2ccc(S(=O)(=O)Nc3ccnnc3)cc2C#N)cc1Cl [Example 94, 4-(3-chloro-4-cyanophenoxy)-3-cyano-N-(pyridazin-4-yl)benzenesulfonamide] | > 10000 |
| N#Cc1ccc(Oc2ccc(S(=O)(=O)Nc3cccnc3)cc2C#N)cc1Cl [Example 92, 4-(3-chloro-4-cyanophenoxy)-3-cyano-N-(pyridin-3-yl)benzenesulfonamide] | 414 |
| COc1c(Oc2ccc(S(=O)(=O)Nc3ccc(F)cn3)cc2C#N)ccc(F)c1C [Example 173, 3-cyano-4-(4-fluoro-2-methoxy-3-methylphenoxy)-N-(5-fluoropyridin-2-yl)benzenesulfonamide] | 131 |
| CCc1ccc(Oc2ccc(S(=O)(=O)Nc3ccc(F)cn3)cc2C#N)cc1 [Example 50, 3-cyano-4-(4-ethylphenoxy)-N-(5-fluoropyridin-2-yl)benzenesulfonamide] | > 10000 |

| Structure (SMILES) | IC50 [nM] |
| --- | --- |
| Cc1cc(Oc2ccc(S(=O)(=O)Nc3ccc(F)cn3)cc2C#N)cc(Cl)c1C [Example 171, 4-(3-chloro-4,5-dimethylphenoxy)-3-cyano-N-(5-fluoropyridin-2-yl)benzenesulfonamide] | 215 |
| COc1ccc(Oc2ccc(S(=O)(=O)Nc3ccc(F)cn3)cc2C#N)c(C)c1 [Example 201, 3-cyano-N-(5-fluoropyridin-2-yl)-4-(4-methoxy-2-methylphenoxy)benzenesulfonamide] | 74 |
| N#Cc1cc(S(=O)(=O)Nc2ccc(F)cn2)ccc1Oc1ccc(C#N)c(C(F)(F)F)c1 [Example 6, 3-cyano-4-[4-cyano-3-(trifluoromethyl)phenoxy]-N-(5-fluoropyridin-2-yl)benzenesulfonamide] | 267 |
| Cc1ccc(F)cc1Oc1ccc(S(=O)(=O)Nc2ccc(F)cn2)cc1C#N [Example 21, 3-cyano-4-(5-fluoro-2-methylphenoxy)-N-(5-fluoropyridin-2-yl)benzenesulfonamide] | 84 |
| COc1ccc(Oc2ccc(S(=O)(=O)Nc3ccc(F)cn3)cc2C#N)cc1Cl [Example 148, 4-(3-chloro-4-methoxyphenoxy)-3-cyano-N-(5-fluoropyridin-2-yl)benzenesulfonamide] | 53 |
| CCOc1ccc(Oc2ccc(S(=O)(=O)Nc3ccc(F)cn3)cc2C#N)cc1 [Example 153, 3-cyano-4-(4-ethoxyphenoxy)-N-(5-fluoropyridin-2-yl)benzenesulfonamide] | > 10000 |
| Cc1ccc(NS(=O)(=O)c2ccc(Oc3cccc(Cl)c3C#N)cc2)nc1 [Example 221, 4-(3-chloro-2-cyanophenoxy)-N-(5-methylpyridin-2-yl)benzenesulfonamide] | > 10000 |
| Cc1cc(Cl)c(Oc2ccc(S(=O)(=O)Nc3ccc(F)cn3)cc2C#N)cc1C#N [Example 26, 4-(2-chloro-5-cyano-4-methylphenoxy)-3-cyano-N-(5-fluoropyridin-2-yl)benzenesulfonamide] | 57 |
| N#Cc1ccc(Oc2ccc(S(=O)(=O)Nc3ccc(F)cn3)cc2C#N)cc1 [Example 10, 3-cyano-4-(4-cyanophenoxy)-N-(5-fluoropyridin-2-yl)benzenesulfonamide] | 74 |
| N#Cc1cc(S(=O)(=O)Nc2ccc(F)cn2)ccc1Oc1cccc(Cl)c1Cl [Example 3, 3-cyano-4-(2,3-dichlorophenoxy)-N-(5-fluoropyridin-2-yl)benzenesulfonamide] | 141 |
| Cc1ccc(Oc2ccc(S(=O)(=O)Nc3ccc(F)cn3)cc2C#N)c(Cl)c1C [Example 178, 4-(2-chloro-3,4-dimethylphenoxy)-3-cyano-N-(5-fluoropyridin-2-yl)benzenesulfonamide] | > 10000 |
| N#Cc1cc(S(=O)(=O)Nc2ccc(F)cn2)ccc1Oc1cc(F)c(C#N)c(Cl)c1 [compound 237, 4-(3-chloro-4-cyano-5-fluorophenoxy)-3-cyano-N-(5-fluoropyridin-2-yl)benzenesulfonamide] | 8 |
| N#Cc1cc(S(=O)(=O)Nc2ccc(F)cn2)ccc1Oc1ccc(F)c(Cl)c1 [Example 78, 4-(3-chloro-4-fluorophenoxy)-3-cyano-N-(5-fluoropyridin-2-yl)benzenesulfonamide] | 19 |
| N#Cc1cccc(Oc2ccc(S(=O)(=O)Nc3ccc(F)cn3)cc2C#N)c1 [Example 14, 3-cyano-4-(3-cyanophenoxy)-N-(5-fluoropyridin-2-yl)benzenesulfonamide] | 206 |
| N#Cc1cc(S(=O)(=O)Nc2ccc(F)cn2)ccc1Oc1cnc(C#N)c(Cl)c1 [Example 68, 4-[(5-chloro-6-cyanopyridin-3-yl)oxy]-3-cyano-N-(5-fluoropyridin-2-yl)benzenesulfonamide] | 155 |
| Cc1cc(Oc2ccc(S(=O)(=O)Nc3ccc(F)cn3)cc2C#N)ccc1C(C)C [Example 139, 3-cyano-N-(5-fluoropyridin-2-yl)-4-[3-methyl-4-(propan-2-yl)phenoxy]benzenesulfonamide] | > 10000 |
